Biological target: T1, human full-length MKNK1 (Homo sapiens, UniProt Q9BUB5, T385D)
T1 construct: purchased Carna Biosciences 02-145; host or cells: insect cells (baculovirus expression system)
Assay: MKNK1 kinase high ATP assay (TR-FRET)
Format: biochemical
Details: high ATP (2 mM final), 15 min preincubation with enzyme, GST-MKNK1 (T344D)
Summary of the method: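 GST-tagged full-length human MKNK1 from insect cells, preincubated 15 min with compound at 22° C in HEPES pH 7.5/MgCl2/DTT buffer, then reacted 30 min with 2 mM ATP and 0.06 μM biotinylated peptide (final). Phosphopeptide detected by TR-FRET (anti-pS6 pSer236/Eu-ProteinG, streptavidin-XL665), 665/620 ratio normalised to no-enzyme and no-inhibitor controls.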

T1 sequence (Q9BUB5 1-424 isoform Q9BUB5-2 T344D): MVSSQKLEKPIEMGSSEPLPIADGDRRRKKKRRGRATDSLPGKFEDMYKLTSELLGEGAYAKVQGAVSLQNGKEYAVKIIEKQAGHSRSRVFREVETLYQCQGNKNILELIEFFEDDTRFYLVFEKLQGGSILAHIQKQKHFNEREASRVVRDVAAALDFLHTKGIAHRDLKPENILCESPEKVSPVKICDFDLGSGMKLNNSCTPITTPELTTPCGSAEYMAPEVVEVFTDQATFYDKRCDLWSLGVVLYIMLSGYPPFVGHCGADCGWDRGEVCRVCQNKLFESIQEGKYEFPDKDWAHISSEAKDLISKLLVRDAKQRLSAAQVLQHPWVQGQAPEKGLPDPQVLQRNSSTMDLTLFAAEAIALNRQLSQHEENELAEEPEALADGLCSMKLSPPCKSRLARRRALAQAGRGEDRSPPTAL

IC50 [nM]	Compound
23.1	CN(C)CCN(C)C(=O)c1cc2c(Nc3cc4cn[nH]c4cn3)ncnc2[nH]1 [Example 77, N-[2-(Dimethylamino)ethyl]-N-methyl-4-(1H-pyrazolo[3,4-c]pyridin-5-ylamino)-7H-pyrrolo[2,3-d]pyrimidine-6-carboxamide]
7.4	CN(CCN(C)C(=O)c1cc2c(Nc3cc4cn[nH]c4cn3)ncnc2[nH]1)Cc1ccccc1 [Example 78, N-{2-[Benzyl(methyl)amino]ethyl}-N-methyl-4-(1H-pyrazolo[3,4-c]pyridin-5-ylamino)-7H-pyrrolo[2,3-d]pyrimidine-6-carboxamide]
1350	c1ccc(CCc2nc3c(Nc4cc5cn[nH]c5cn4)ncnc3s2)cc1 [Example 79, 2-(2-Phenylethyl)-N-(1H-pyrazolo[3,4-c]pyridin-5-yl)[1,3]thiazolo[5,4-d]pyrimidin-7-amine]
16.1	CCCN(C)C(=O)[C@H]1CCc2c(sc3ncnc(Nc4cc5cn[nH]c5cn4)c23)C1 [Example 81, (7S)—N-Methyl-N-propyl-4-(1H-pyrazolo[3,4-c]pyridin-5-ylamino)-5,6,7,8-tetrahydro[1]benzothieno[2,3-d]pyrimidine-7-carboxamide]
3.2	N#CC1CN(C(=O)[C@H]2CCc3c(sc4ncnc(Nc5cc6cn[nH]c6cn5)c34)C2)C1 [Example 82, 1-{[(7S)-4-(1H-Pyrazolo[3,4-c]pyridin-5-ylamino)-5,6,7,8-tetrahydro[1]benzothieno[2,3-d]pyrimidin-7-yl]carbonyl}azetidine-3-carbonitrile]
3.6	CN(C)[C@@H]1CCN(C(=O)[C@H]2CCc3c(sc4ncnc(Nc5cc6cn[nH]c6cn5)c34)C2)C1 [Example 84, [(3R)-3-(Dimethylamino)pyrrolidin-1-yl][(7S)-4-(1H-pyrazolo[3,4-c]pyridin-5-ylamino)-5,6,7,8-tetrahydro[1]benzothieno[2,3-d]pyrimidin-7-yl]methanone]
5.9	C[C@@H]1CN(C(=O)[C@H]2CCc3c(sc4ncnc(Nc5cc6cn[nH]c6cn5)c34)C2)C[C@H](C)O1 [Example 89, [(2R,6S)-2,6-Dimethylmorpholin-4-yl][(7S)-4-(1H-pyrazolo[3,4-c]pyridin-5-ylamino)-5,6,7,8-tetrahydro[1]benzothieno[2,3-d]pyrimidin-7-yl]methanone]
5.2	CN1CCN(C(=O)[C@H]2CCc3c(sc4ncnc(Nc5cc6cn[nH]c6cn5)c34)C2)CC1 [Example 90, (4-Methylpiperazin-1-yl)[(7S)-4-(1H-pyrazolo[3,4-c]pyridin-5-ylamino)-5,6,7,8-tetrahydro[1]benzothieno[2,3-d]pyrimidin-7-yl]methanone]
13.5	CCCN(C)C(=O)[C@H]1CCc2c(sc3ncnc(Nc4cnc5[nH]ncc5c4)c23)C1 [Example 93, (7S)—N-Methyl-N-propyl-4-(1H-pyrazolo[3,4-b]pyridin-5-ylamino)-5,6,7,8-tetrahydro[1]benzothieno[2,3-d]pyrimidine-7-carboxamide]
18.8	COCCN(C)C(=O)[C@H]1CCc2c(sc3ncnc(Nc4cnc5[nH]ncc5c4)c23)C1 [Example 96, (7S)—N-(2-Methoxyethyl)-N-methyl-4-(1H-pyrazolo[3,4-b]pyridin-5-ylamino)-5,6,7,8-tetrahydro[1]benzothieno[2,3-d]pyrimidine-7-carboxamide]
3.7	CN(C)[C@H]1CCN(C(=O)[C@H]2CCc3c(sc4ncnc(Nc5cnc6[nH]ncc6c5)c34)C2)C1 [Example 100, [(3S)-3-(Dimethylamino)pyrrolidin-1-yl][(7S)-4-(1H-pyrazolo[3,4-b]pyridin-5-ylamino)-5,6,7,8-tetrahydro[1]benzothieno[2,3-d]pyrimidin-7-yl]methanone]
27	O=C([C@H]1CCc2c(sc3ncnc(Nc4cnc5[nH]ncc5c4)c23)C1)N1CCOCC1 [Example 102, Morpholin-4-yl[(7S)-4-(1H-pyrazolo[3,4-b]pyridin-5-ylamino)-5,6,7,8-tetrahydro[1]benzothieno[2,3-d]pyrimidin-7-yl]methanone]

The next lines start with the molecule.

Compound	IC50 [nM]
O=C(c1[nH]c2ncnc(Nc3cnc4[nH]ncc4c3)c2c1Br)N1CCOCC1 [Example 74, [5-Bromo-4-(1H-pyrazolo[3,4-b]pyridin-5-ylamino)-7H-pyrrolo[2,3-d]pyrimidin-6-yl](morpholin-4-yl)methanone]	140
C[C@H]1COCCN1C(=O)c1[nH]c2ncnc(Nc3cnc4[nH]ncc4c3)c2c1Br [Example 75, [5-Bromo-4-(1H-pyrazolo[3,4-b]pyridin-5-ylamino)-7H-pyrrolo[2,3-d]pyrimidin-6-yl][(3S)-3-methymorpholin-4-yl]methanone]	61
CN(C)C(=O)CNC(=O)c1cc2c(Nc3cc4cn[nH]c4cn3)ncnc2[nH]1 [Example 76, N-[2-(Dimethylamino)-2-oxoethyl]-4-(1H-pyrazolo[3,4-c]pyridin-5-ylamino)-7H-pyrrolo[2,3-d]pyrimidine-6-carboxamide]	71.5
CC(C)NC(=O)[C@H]1CCc2c(sc3ncnc(Nc4cc5cn[nH]c5cn4)c23)C1 [Example 80, (7S)—N-(Propan-2-yl)-4-(1H-pyrazolo[3,4-c]pyridin-5-ylamino)-5,6,7,8-tetrahydro[1]benzothieno[2,3-d]pyrimidine-7-carboxamide]	23.9
O=C([C@H]1CCc2c(sc3ncnc(Nc4cc5cn[nH]c5cn4)c23)C1)N1CC2(COC2)C1 [Example 83, 2-Oxa-6-azaspiro[3.3]hept-6-yl[(7S)-4-(1H-pyrazolo[3,4-c]pyridin-5-ylamino)-5,6,7,8-tetrahydro[1]benzothieno[2,3-d]pyrimidin-7-yl]methanone]	6.9
CN(C)[C@H]1CCN(C(=O)[C@H]2CCc3c(sc4ncnc(Nc5cc6cn[nH]c6cn5)c34)C2)C1 [Example 85, [(3S)-3-(Dimethylamino)pyrrolidin-1-yl][(7S)-4-(1H-pyrazolo[3,4-c]pyridin-5-ylamino)-5,6,7,8-tetrahydro[1]benzothieno[2,3-d]pyrimidin-7-yl]methanone]	4.5
O=C([C@H]1CCc2c(sc3ncnc(Nc4cc5cn[nH]c5cn4)c23)C1)N1CCOCC1 [Example 86, Morpholin-4-yl [(7S)-4-(1H-pyrazolo[3,4-c]pyridin-5-ylamino)-5,6,7,8-tetrahydro[1]benzothieno[2,3-d]pyrimidin-7-yl]methanone]	7.1
C[C@H]1COCCN1C(=O)[C@H]1CCc2c(sc3ncnc(Nc4cc5cn[nH]c5cn4)c23)C1 [Example 87, [(3S)-3-Methylmorpholin-4-yl][(7S)-4-(1H-pyrazolo[3,4-c]pyridin-5-ylamino)-5,6,7,8-tetrahydro[1]benzothieno[2,3-d]pyrimidin-7-yl]methanone]	10.5
C[C@@H]1COCCN1C(=O)[C@H]1CCc2c(sc3ncnc(Nc4cc5cn[nH]c5cn4)c23)C1 [Example 88, [(3R)-3-Methylmorpholin-4-yl][(7S)-4-(1H-pyrazolo[3,4-c]pyridin-5-ylamino)-5,6,7,8-tetrahydro[1]benzothieno[2,3-d]pyrimidin-7-yl]methanone]	8
CN(C)C1CCN(C(=O)[C@H]2CCc3c(sc4ncnc(Nc5cc6cn[nH]c6cn5)c34)C2)CC1 [Example 91, [4-(Dimethylamino)piperidin-1-yl][(7S)-4-(1H-pyrazolo[3,4-c]pyridin-5-ylamino)-5,6,7,8-tetrahydro[1]benzothieno[2,3-d]pyrimidin-7-yl]methanone]	3.1
CCN(C)C(=O)[C@H]1CCc2c(sc3ncnc(Nc4cnc5[nH]ncc5c4)c23)C1 [Example 92, (7S)—N-Ethyl-N-methyl-4-(1H-pyrazolo[3,4-b]pyridin-5-ylamino)-5,6,7,8-tetrahydro[1]benzothieno[2,3-d]pyrimidine-7-carboxamide]	15.4
CN(CCC(F)(F)F)C(=O)[C@H]1CCc2c(sc3ncnc(Nc4cnc5[nH]ncc5c4)c23)C1 [Example 94, (7S)—N-Methyl-4-(1H-pyrazolo[3,4-b]pyridin-5-ylamino)-N-(3,3,3-trifluoropropyl)-5,6,7,8-tetrahydro[1]benzothieno[2,3-d]pyrimidine-7-carboxamide]	8.2
CC(C)N(C)C(=O)[C@H]1CCc2c(sc3ncnc(Nc4cnc5[nH]ncc5c4)c23)C1 [Example 95, (7S)—N-Methyl-N-(propan-2-yl)-4-(1H-pyrazolo[3,4-b]pyridin-5-ylamino)-5,6,7,8-tetrahydro[1]benzothieno[2,3-d]pyrimidine-7-carboxamide]	18
O=C([C@H]1CCc2c(sc3ncnc(Nc4cnc5[nH]ncc5c4)c23)C1)N1CCC1 [Example 97, Azetidin-1-yl[(7S)-4-(1H-pyrazolo[3,4-b]pyridin-5-ylamino)-5,6,7,8-tetrahydro[1]benzothieno[2,3-d]pyrimidin-7-yl]methanone]	47.6
O=C([C@H]1CCc2c(sc3ncnc(Nc4cnc5[nH]ncc5c4)c23)C1)N1CC2(COC2)C1 [Example 98, 2-Oxa-6-azaspiro[3.3]hept-6-yl[(7S)-4-(1H-pyrazolo[3,4-b]pyridin-5-ylamino)-5,6,7,8-tetrahydro[1]benzothieno[2,3-d]pyrimidin-7-yl]methanone]	15.8
N#CC1CN(C(=O)[C@H]2CCc3c(sc4ncnc(Nc5cnc6[nH]ncc6c5)c34)C2)C1 [Example 99, 1-{[(7S)-4-(1H-Pyrazolo[3,4-b]pyridin-5-ylamino)-5,6,7,8-tetrahydro[1]benzothieno[2,3-d]pyrimidin-7-yl]carbonyl}azetidine-3-carbonitrile]	14.5
CN(C)[C@@H]1CCN(C(=O)[C@H]2CCc3c(sc4ncnc(Nc5cnc6[nH]ncc6c5)c34)C2)C1 [Example 101, [(3R)-3-(Dimethylamino)pyrrolidin-1-yl][(7S)-4-(1H-pyrazolo[3,4-b]pyridin-5-ylamino)-5,6,7,8-tetrahydro[1]benzothieno[2,3-d]pyrimidin-7-yl]methanone]	4.6

— patent US20160159789A1, “SUBSTITUTED PYRAZOLOPYRIDINES” (BAYER PHARMA AKTIENGESELLSCHAFT, priority 2013, published 2016)
